The source of these data is patent publication US20060293227A1, “Cosmetic compositions and methods using transforming growth factor-beta mimics” (priority 2005, published 2006).

For data set [1], the system named is Mv-1-Lu mink lung epithelial cells. Nature of the data set: Inhibition of DNA synthesis ([3H]thymidine incorporation) of Mv-1-Lu mink lung epithelial cells. In kind it is cell-based. To be noted: for Inhib by new peptide/Inhib by cytomodulin: 3H-thymidine incorporation, MV-1-Lu cells, cytomodulin at same concentration; for 3H-Radioactivity / % Inhibition of incorporation of 3H-thymidine: MV-1 Lu cells; for Inhibition of DNA synthesis / proliferation of Mv-1-Lu cells (in words): thymidine incorporation, cytomodulin at 10^-9 to 10^-6 M. The procedure:
The effect of TGF-β and cytomodulin were evaluated by determining the rate of […] incorporation into total acid-insoluble DNA and cell number. See generally, Sampath et al., J. Biol. Chem., 267, pp. 20352-20362 (1992). DNA synthesis rates were determined in triplicate cultures after 24 hour treatment with various concentrations (10^−9 M to 10^−6 M) of either TGF-β or cytomodulin (which was synthesized by the Merrifield method) by adding [methyl-^3H]thymidine (2uCi/ml, 80 Ci/mmol) for 6 hours before the termination of the culture. Incorporation was terminated by aspiration of the medium, and after washing three times with phosphate-buffered saline, the trichloroacetic acid (10%)-precipitated radioactive DNA was extracted with 1.0% (w/v) sodium dodecyl sulfate, 0.1 M NaOH and quantitated by liquid scintillation counting. For cell number determination, 1×10^5 cells were plated in flasks in MEM containing 10% FBS, and after 24 hours, the growth medium was replaced with serum-free medium containing various conceptions of TGF-β and cytomodulin. Triplicate cultures were harvested every 24 hours for the duration of 7 days, and the cell number was determined by counting cells released by trypsin digestion in a fixed volume hemacytometer.
The numbers shown at the various concentration are the ratio of the inhibition rate of the peptide being tested over the inhibition rate of cytomodulin (SEQ ID NO: 1) at the same concentration.
Tests for bioactivity were conducted as described above for DNA inhibition. In summary, the cytomodulin analogs listed in Table 3 were all found active as agonists and thus, as defined herein, are considered TGF-β mimics.
Background: Incorporation of labelled thymidine or its analogues reports DNA synthesis.

Data set [2] has as its system NRK-49 F fibroblasts. In words: Growth and colony formation by NRK-49 F fibroblasts in soft agar. In kind it is cell-based. As to conditions: 100 nM in Example 2, with EGF and PDGF. The procedure: The original assay for TGF-β, the ability to promote anchorage independent growth of normal fibroblasts is still one of the hallmarks of TGF-β activity. NRK-49 F fibroblasts were grown at 37° C. in DEM supplemented with 10% fetal calf serum. […] To this, either 100 nM TGF-β (positive control) or 100 nM cytomodulin was added. NRK49 F fibroblasts (5×10^4 cells/mi) were mixed with 0.3% agar were plated on the bottom of 35 mm culture dishes. Colony formation was observed starting on day 3 of culture.

The next data set deals with human dermal fibroblasts. Nature of the data set: Expression of type I collagen, TGF-β and collagenase in human dermal fibroblasts. In kind it is cell-based. To be noted: for Expression of TGF-β / Expression of collagenase: human dermal fibroblasts; for Expression of type I collagen: human dermal fibroblasts (primary cultures of neo-natal cells for cytomodulin).
Data set [3] deals with human osteogenic sarcoma (HOS) cell line. Nature of the data set: Expression of type I collagen, TGF-β, alkaline phosphatase and osteonectin in HOS cells. In kind it is cell-based.
In another data set the test system is TGF-β activity. Nature of the data set: TGF-β like activity, overall statement from the assays used. In kind it is cell-based. To be noted: by the assays used.
Data set [4] deals with NRK-49 F fibroblasts. To be noted: literature statement (Massagu, J. Biol. Chem. 1984); cited from earlier work.
The test system of data set [5] is skin. Further details: species or system human. As to conditions: in vivo. From the text:
A person, of light complexion, applied a lotion comprising cytomodulin (SEQ ID NO: 1) at a concentration of about 0.001%, in EUCERIN™, to one side of their face a at a frequency of 1-2 times per week, typically at night before sleep, leaving uncovered while leaving the other side of their face without application of the TGF-β lotion. […] For example, crows feet became more shallow and the skin and face looked fuller and smoother. Color and skin tone became more youthful in appearance. […] After 18 days of treatment, the difference in appearance between the treated and untreated sides of the face was noticeable enough that the subject began to apply the topical composition to the entire face.
The same subject applied the CM-1 lotion to the back of one hand daily, while leaving the back of the other hand untreated. The treatment continued for several weeks.

The subject of another data set is eyelids. Also noted: species or system human. To be noted: in vivo. The source says: A person, applied a lotion comprising cytomodulin (SEQ ID NO: 1) at a concentration of about 0.001%, to their eyelids twice per week for 2 months.
Data set [6] deals with skin. Further details: species or system human. As to conditions: in vivo. The source says:
A person, with very dry, wind-burnt skin, many fine lines, and the beginning of wrinkles, applied a lotion comprising cytomodulin (SEQ ID NO: 1) at a concentration of about 0.001% on left side of their face only, three days per week. […] Within 3 weeks there was a a noticeable difference between the two sides of the face, with the right side having more fine lines appearing much drier and weather-worn than the left (treated) side. […] The subject stopped application after 3 months because of the difference in the appearance of the two side of the face A person applied a lotion comprising cytomodulin (SEQ ID NO: 1) at a concentration of about 0.001% on right side of their neck only, daily. […] The right side of the neck is noticeably different than the left side of the neck. […] A person with noticebly wrinkled and thickened skin on the neck applied a lotion comprising cytomodulin (SEQ ID NO: 1) at a concentration of about 0.001% to their neck once every four days. The subject also used Lancome makeup with sunscreen and Oil of Olay moisturizer for sensitive skin.
The source holds these as a separate data set.

Where no end group is shown, it is not given here. [ ]: non-standard residue; d: D form. NMeA = CN[C@@H](C)C(=O)O; Abu = CC[C@H](N)C(=O)O; Aib = CC(C)(N)C(=O)O

On to L-I-A-G-G-E (LIAGGE) [SEQ ID NO: 13], for which the “Inhib by new peptide/Inhib by cytomodulin” value (“Inhib by new peptide/Inhib” below) in data set [1] (concentration 1 nM) is given as 1.10; in [1] (concentration 10 nM), 1.33; in data set [1] (concentration 100 nM) it was 1.45; in data set [1] (concentration 1000 nM), 1.90.

For “L-(Aib)-A-E-A-K (L[Aib]AEAK) [SEQ ID NO: 4]”, the 3H-Radioactivity is given as 2.31 10^3 dpm in data set [1] (peptide 5 nM); 1.94 10^3 dpm in [1] (peptide 50 nM); 1.44 10^3 dpm in data set [1] (peptide 100 nM); 1.61 10^3 dpm in [1] (peptide 500 nM); 2.60 10^3 dpm in data set [1] (peptide 1 mM (so in the source), control without peptide 3.57). Moreover, the “% Inhibition of incorporation of 3H-thymidine” value (“% Inhibition” below) in [1] (peptide 5 nM) is 35%; in [1] (peptide 50 nM) it was 46%; in data set [1] (peptide 100 nM), 60%; in data set [1] (peptide 500 nM) it was 55%; in [1] (peptide 1 mM (so in the source)), 27%.

For the substance L-I-A-G-E-G (LIAGEG) [SEQ ID NO: 14], the “Inhib by new peptide/Inhib” value is 0.66 in data set [1] (concentration 1 nM), 0.85 in data set [1] (concentration 10 nM), 1.41 in data set [1] (concentration 100 nM) and 1.88 in data set [1] (concentration 1000 nM).

Regarding L-I-A-K-G-K (LIAKGK) [SEQ ID NO: 16], the “Inhib by new peptide/Inhib” value in [1] (concentration 10 nM) worked out at 0.65; in [1] (concentration 100 nM) it was 0.67.

For L-I-A-E-A-A (LIAEAA) [SEQ ID NO: 11], the “Inhib by new peptide/Inhib” value in [1] (concentration 1 nM) came out at 1.16; in data set [1] (concentration 10 nM) it was 1.00; in data set [1] (concentration 100 nM), 1.17; in data set [1] (concentration 1000 nM) it was 1.85.

In the case of L-I-A-Q-A-K (LIAQAK) [SEQ ID NO: 12], the “Inhib by new peptide/Inhib” value in data set [1] (concentration 1 nM) amounted to 0.90; in [1] (concentration 10 nM), 1.10; in data set [1] (concentration 100 nM), 0.80; in data set [1] (concentration 1000 nM) it was 1.56.

Turning to L-I-A-N-A-K (LIANAK) [SEQ ID NO: 10], the “Inhib by new peptide/Inhib” value in data set [1] (concentration 1 nM) is 1.70; in data set [1] (concentration 10 nM), 2.00; in data set [1] (concentration 100 nM), 1.43; in [1] (concentration 1000 nM), 3.05.

In the case of “L-(Abu)-A-E-A-K (L[Abu]AEAK) [SEQ ID NO: 6]”, in data set [1] (peptide 1 nM), the 3H-Radioactivity is reported as 2.02 10^3 dpm and the “% Inhibition” value amounted to 33%. Also, in data set [1] (peptide 5 nM), the 3H-Radioactivity was 1.97 10^3 dpm and the “% Inhibition” value stood at 35%.

As for L-I-A-E-A-K (LIAEAK) [L2], the “Inhibition of DNA synthesis / proliferation of Mv-1-Lu cells (in words)” value in data set [1] was “inhibited the proliferation”. Further, the “Growth and colony formation in soft agar” value in the data set with NRK-49 F fibroblasts [2] is recorded as “promoted the growth”. In the data set with human dermal fibroblasts, the “Expression of TGF-β” value was “increased the expression”, the Expression of collagenase entry is given as “decreased the expression” and the “Expression of type I collagen” value is “increased the expression”. In addition, in data set [3], the “Expression of TGF-β” value was “increased the expression”, the “Expression of alkaline phosphatase” value is reported as “increased the expression” and the “Expression of type I collagen” value was “increased the expression”. Besides, the “TGF-β like activity (overall)” value with TGF-β activity is “at least as much TGF-β like activity as cytomodulin”.

Regarding TGF-β, the “Growth and colony formation in soft agar” value in the data set on NRK-49 F fibroblasts [2] is given as “grew colonies”. Further, the “Colony formation in the absence of EGF and PDGF” value in the data set on NRK-49 F fibroblasts [4] is “does not induce colony formation”.

On to A-N-V-A-E-K (ANVAEK) [SEQ ID NO: 15], for which the “Inhib by new peptide/Inhib” value in data set [1] (concentration 10 nM) is on record as 0.80; in data set [1] (concentration 100 nM) it was 1.00.

As to L-I-A-D-A-K (LIADAK) [SEQ ID NO: 9], the “Inhib by new peptide/Inhib” value in data set [1] (concentration 1 nM) was determined as 0.45; in [1] (concentration 10 nM), 0.87; in data set [1] (concentration 100 nM), 1.14; in data set [1] (concentration 1000 nM), 1.25.

Turning to “L-I-(Nme-A)-E-A-K (LI[NMeA]EAK) [SEQ ID NO: 5]”, the 3H-Radioactivity is listed as 1.61 10^3 dpm in data set [1] (peptide 1 nM); 1.76 10^3 dpm in data set [1] (peptide 5 nM); 1.60 10^3 dpm in data set [1] (peptide 50 nM); 1.81 10^3 dpm in data set [1] (peptide 100 nM); 1.42 10^3 dpm in [1] (peptide 500 nM). For the same substance, the “% Inhibition” value in data set [1] (peptide 1 nM) was found to be 47%; in [1] (peptide 5 nM), 42%; in data set [1] (peptide 50 nM) it was 41%; in data set [1] (peptide 100 nM) it was 40%; in data set [1] (peptide 500 nM) it was 53%.

In the case of “ANVAENA [cytomodulin, Ala-Asn-Val-Ala-Glu-Asn-Ala]”, the “Negative effects of application” value with skin [5] was “No negative effects”. Further, the Adverse effects result with eyelids is listed as “No adverse effects”. For the same substance, in the data set on skin [6], the “Accidental contact of the lotion with the eyes” value is recorded as “no apparent problem or irritation”, the Adverse effects result was “No adverse effects” and the “Adverse effects (subject's report)” value was “no adverse effects”.

Consider L-I-A-P-E-A (LIAPEA) [L1], for which the “Inhibition of DNA synthesis / proliferation of Mv-1-Lu cells (in words)” value in data set [1] was “inhibited the proliferation”. For the same substance, in the data set with NRK-49 F fibroblasts [2], the “Growth and colony formation in soft agar” value is recorded as “promoted the growth”. In addition, in the data set with human dermal fibroblasts, the “Expression of TGF-β” value is “increased the expression”, the Expression of collagenase result is reported as “decreased the expression” and the “Expression of type I collagen” value was “increased the expression”. Besides, in data set [3], the “Expression of TGF-β” value is reported as “increased the expression”, the “Expression of alkaline phosphatase” value is recorded as “increased the expression” and the “Expression of type I collagen” value was “increased the expression”. The “TGF-β like activity (overall)” value in the data set on TGF-β activity was “at least as much TGF-β like activity as cytomodulin”.
